Columns and labels:
[1] = Sample hygroscopicity test: H2O content before and after 24 hours at 100% humidity; assay type: physicochemical; settings: for H2O content after 24 hours maintenance at 100% humidity: closed vessel over water; for H2O content after 24 hours maintenance at 100% humidity / Initial H2O content in the sample: Fischer titration; for Initial H2O content in the sample: before the test; for hygroscopicity (in words): qualitative statement
Experimental: Sample hygroscopicity was tested by H2O content determination before the test and after 24 hours maintenance at 100% humidity (keeping in a closed vessel over water). On such conditions, Meldonium absorbs 10% water (as to mass increase) during 24 hours. Water content was determined by titration by Fischer's method; in cases of syrup formation water content is determined by sample mass increase.

[2] = rats; cited from earlier work
[3] = humans; cited from earlier work
[4] = Thermal / storage stability; assay type: physicochemical; settings: qualitative statement

Compound | H2O content after 24 hours maintenance at 100% humidity [1] | Initial H2O content in the sample [1] | Sample mass increase due to absorbed water ([1]; 24 hours at 100% humidity) | also measured
C[N+](C)(C)NCCC(=O)O.C[N+](C)(C)NCCC(=O)O.NCCS(=O)(=O)[O-].NCCS(=O)(=O)[O-].O.O.O [Meldonium 2-aminoethane sulfonate (taurate; 1:1; ×1.5H2O)] | 17.0854% | 9,4824% |  | 
C[N+](C)(C)NCCC(=O)O.NC(CC(=O)O)C(=O)[O-].O.O [Meldonium L-(+)-aspartate (1:1; ×2H2O)] |  | 12.5% | 18% | 
CN(CC(=O)O)C(=N)N.C[N+](C)(C)NCCC(=O)[O-].O.O.O [Meldonium creatinate (1:1; ×3H2O)] |  | 15.8% | 18% | 
C[N+](C)(C)NCCC(=O)O.O=C([O-])C(Cl)Cl [Meldonium dichloroacetate (1:1)] |  | 1.17% | 12% | 
C[N+](C)(C)NCCC(=O)[O-].O=C(O)C=CC(=O)O [Meldonium fumarate (1:1)] | remains unchanged | 0.18% |  | 
C[N+](C)(C)NCCC(=O)[O-].C[N+](C)(C)NCCC(=O)[O-].O=C(O)C=CC(=O)O [Meldonium fumarate (2:1)] | 13.4707% | 1.5136% |  | 
CC(O)C(=O)O.C[N+](C)(C)NCCC(=O)[O-] [Meldonium lactate (1:1)] |  |  |  | hygroscopicity (in words) [1]: hygroscopic
C[N+](C)(C)NCCC(=O)O.O.O.O=C([O-])CC(O)(CC(=O)[O-])C(=O)[O-].[Mg+2] [Meldonium magnesium citrate (1:1:1; ×2H2O)] |  | 9.45% |  | State of the sample after maintenance at 100% humidity ([1]; 24 hours at 100% humidity): the sample diffused
C[N+](C)(C)NCCC(=O)[O-].O.O.O=C([O-])CCC(=O)[O-].[Mg+2] [Meldonium magnesium succinate (1:1:1; ×2H2O)] |  | 10.1215% | 20% | 
C[N+](C)(C)NCCC(=O)[O-].C[N+](C)(C)NCCC(=O)[O-].O=C(O)C=CC(=O)O [Meldonium maleate (2:1)] |  | 1.3595% | 18% | 
C[N+](C)(C)NCCC(=O)[O-].O=C(O)C(O)C(O)C(O)C(O)C(=O)O (stereo not shown) [Meldonium mucate (galactarate; 1:1)] | 12.8% | 1.98% |  | 
C[N+](C)(C)NCCC(=O)[O-].C[N+](C)(C)NCCC(=O)[O-].O.O=C(O)C(O)C(O)C(O)C(O)C(=O)O (stereo not shown) [Meldonium mucate (galactarate; 2:1; ×H2O)] | 7.6830% | 3.0414% |  | 
C[N+](C)(C)NCCC(=O)[O-] [Meldonium orotate (1:1)] | remains unchanged | 0.3919% |  | 
C[N+](C)(C)NCCC(=O)O.O=C([O-])C(=O)O [Meldonium oxalate (1:1)] | 3.1211% | 0.1661% |  | 
C[N+](C)(C)NCCC(=O)O.O.O=C([O-])c1cc2ccccc2c(Cc2c(O)c(C(=O)O)cc3ccccc23)c1O [Meldonium pamoate (1:1; ×H2O)] |  | 1.71% | 9% | 
C[N+](C)(C)NCCC(=O)O.O=P([O-])(O)O [Meldonium phosphate (1:1)] | remains unchanged | 0.0762% |  | 
C[N+](C)(C)NCCC(=O)O.O=S(=O)([O-])O [Meldonium sulfate (1:1)] |  | 1.4189% | 20% | 
C[N+](C)(C)NCCC(=O)O.C[N+](C)(C)NCCC(=O)O.O=S(=O)([O-])[O-] [Meldonium sulfate (2:1)] |  | 0.313% | 11.8% | 
C[N+](C)(C)NCCC(=O)[O-] [Meldonium, 3-(2,2,2-trimethylhydrazinium) propionate] |  |  |  | half-elimination period compared with humans [2]: longer; half-elimination period [3]: 4 to 10 h; stability (in words) [4]: not very stable
C[N+](C)(C)NCCC(=O)O.O=C([O-])C=CC(=O)O [Meldoniuma maleate (1:1)] | 4.6844% | 0.387% |  | 
C[N+](C)(C)NCCC(=O)[O-] [anhydrous form of Meldonium, reference compound] |  |  |  | hygroscopicity (in words) [1]: extremely hygroscopic; stability (in words) [4]: unstable
Cl [hydrogen chloride, reference compound] |  |  |  | hygroscopicity (in words) [1]: hygroscopic
Meldonium sulfate |  |  |  | hygroscopicity (in words) [1]: hygroscopic
acetate [reference compound] |  |  |  | hygroscopicity (in words) [1]: hygroscopic
citrate |  |  |  | hygroscopicity (in words) [1]: hygroscopic
